The values that follow come from patent US20250230147A1, “LACTAMS AS CBL-B INHIBITORS” (Genentech, Inc., priority 2021, published 2025).

One test deals with Cbl-b (Homo sapiens (Human), UniProt Q13191). Description: Cbl-b LCK Ub TR-FRET assay (Cbl-b Lck HTRF). It is filed as biochemical. A digest of the protocol: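 Biotin-Cbl-b preincubated with compound (10-point 3-fold series) 60 min, then His-LCK with 1 mM ATP (2× mixture) added for 90 min at room temperature. Ubiquitination detected by TR-FRET using HA-ubiquitin/UBE2D2 adduct, anti-HA-D2 and streptavidin-Eu; IC50 normalised to no-LCK and DMSO controls.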
Chain of Cbl-b (Q13191 40-426): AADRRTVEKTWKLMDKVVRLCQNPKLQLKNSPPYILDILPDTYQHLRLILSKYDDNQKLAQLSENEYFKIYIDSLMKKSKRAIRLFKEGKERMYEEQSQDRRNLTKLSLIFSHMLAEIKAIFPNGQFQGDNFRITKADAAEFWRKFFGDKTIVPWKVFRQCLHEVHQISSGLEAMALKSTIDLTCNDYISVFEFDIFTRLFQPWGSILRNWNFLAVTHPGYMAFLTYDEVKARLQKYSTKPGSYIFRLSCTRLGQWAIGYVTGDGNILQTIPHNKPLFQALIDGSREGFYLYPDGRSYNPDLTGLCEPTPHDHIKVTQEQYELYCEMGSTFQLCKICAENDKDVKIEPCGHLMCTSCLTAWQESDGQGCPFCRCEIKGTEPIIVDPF
(In TR-FRET formats the signal depends on donor and acceptor labels being close together.)

The target of another test is c-Cbl (Homo sapiens (Human), UniProt P22681). Description: C-Cbl LCK Ub TR-FRET assay (c-cbl Lck HTRF). It is filed as biochemical. The note with it: for (fold-selectivity): C-cbl Lck HTRF IC50 relative to Cbl-b Lck HTRF IC50. A digest of the protocol: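 Detection reagents added, brief spin, 20 min RT. IC50 fit normalized to no-LCK (low) and DMSO (high) controls.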
Chain of c-Cbl (P22681 47-435): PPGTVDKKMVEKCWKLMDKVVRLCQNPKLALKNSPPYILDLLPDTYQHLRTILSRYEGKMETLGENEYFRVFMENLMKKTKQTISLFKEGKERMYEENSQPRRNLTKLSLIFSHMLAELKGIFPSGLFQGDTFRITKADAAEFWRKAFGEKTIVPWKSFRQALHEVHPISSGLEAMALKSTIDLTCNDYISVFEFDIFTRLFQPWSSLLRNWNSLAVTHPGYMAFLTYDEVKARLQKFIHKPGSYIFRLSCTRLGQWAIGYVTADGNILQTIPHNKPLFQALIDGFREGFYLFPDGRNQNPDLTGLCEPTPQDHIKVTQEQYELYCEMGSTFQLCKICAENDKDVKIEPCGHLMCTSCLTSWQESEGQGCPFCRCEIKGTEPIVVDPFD

As usually defined, the IC50 is the concentration at which inhibition is half-maximal. As for `Cn1cnnc1[C@@H](F)C1(c2cccc(N3Cc4c(cc(CN5CC6(CCC6)C5)cc4C(F)(F)F)C3=O)c2)COC1` [Compound 166, (S)-6-(2-azaspiro[3.3]heptan-2-ylmethyl)-2-(3-(3-(fluoro(4-methyl-4H-1,2,4-triazol-3-yl)methyl)oxetan-3-yl)phenyl)-4-(trifluoromethyl)isoindolin-1-one], on Cbl-b, half-maximal inhibition (IC50) required 170 nM. Also, at c-Cbl, the IC50 worked out at 310 nM and the “(fold-selectivity)” value is 1.8x.

On Cbl-b, `CCC1(O)CN(Cc2cc3c(c(C(F)(F)F)c2)CN(c2cccc(C4([C@@H](F)c5nncn5C)COC4)c2)C3=O)C1` [Compound 167, (R)-6-((3-ethyl-3-hydroxyazetidin-1-yl)methyl)-2-(3-(3-(fluoro(4-methyl-4H-1,2,4-triazol-3-yl)methyl)oxetan-3-yl)phenyl)-4-(trifluoromethyl)isoindolin-1-one] came in with an IC50 of 59 nM. Moreover, at c-Cbl, the IC50 stood at 150 nM and the “(fold-selectivity)” value worked out at 2.5x.

On Cbl-b, `CCC1(O)CN(Cc2cc3c(c(C(F)(F)F)c2)CN(c2cccc(C4([C@H](F)c5nncn5C)COC4)c2)C3=O)C1` [Compound 168, (S)-6-((3-ethyl-3-hydroxyazetidin-1-yl)methyl)-2-(3-(3-(fluoro(4-methyl-4H-1,2,4-triazol-3-yl)methyl)oxetan-3-yl)phenyl)-4-(trifluoromethyl)isoindolin-1-one] showed an IC50 of 180 nM. Besides, at c-Cbl, the IC50 came out at 380 nM and the “(fold-selectivity)” value came out at 2.1x.

Compound `C=CC1(O)CN(Cc2cc3c(c(C(F)(F)F)c2)CN(c2cccc(C4([C@@H](F)c5nncn5C)COC4)c2)C3=O)C1` [Compound 169, (R)-2-(3-(3-(fluoro(4-methyl-4H-1,2,4-triazol-3-yl)methyl)oxetan-3-yl)phenyl)-6-((3-hydroxy-3-vinylazetidin-1-yl)methyl)-4-(trifluoromethyl)isoindolin-1-one] gave an IC50 at Cbl-b of 44 nM. On c-Cbl, the IC50 worked out at 99 nM and the “(fold-selectivity)” value is on record as 2.2x.

With `C=CC1(O)CN(Cc2cc3c(c(C(F)(F)F)c2)CN(c2cccc(C4([C@H](F)c5nncn5C)COC4)c2)C3=O)C1` [Compound 170, (S)-2-(3-(3-(fluoro(4-methyl-4H-1,2,4-triazol-3-yl)methyl)oxetan-3-yl)phenyl)-6-((3-hydroxy-3-vinylazetidin-1-yl)methyl)-4-(trifluoromethyl)isoindolin-1-one], 140 nM corresponded to half-maximal inhibition against Cbl-b (IC50). On c-Cbl, the IC50 was 360 nM and the “(fold-selectivity)” value is 2.5x.

In turn, `CCCC1(O)CN(Cc2cc3c(c(C(F)(F)F)c2)CN(c2cccc(C4([C@@H](F)c5nncn5C)COC4)c2)C3=O)C1` [Compound 171, (R)-2-(3-(3-(fluoro(4-methyl-4H-1,2,4-triazol-3-yl)methyl)oxetan-3-yl)phenyl)-6-((3-hydroxy-3-propylazetidin-1-yl)methyl)-4-(trifluoromethyl)isoindolin-1-one] came in with an IC50 on Cbl-b of 49 nM. Besides, on c-Cbl, the half-inhibitory concentration (IC50) stood at 82 nM and the “(fold-selectivity)” value is reported as 1.7x.

`CCCC1(O)CN(Cc2cc3c(c(C(F)(F)F)c2)CN(c2cccc(C4([C@H](F)c5nncn5C)COC4)c2)C3=O)C1` [Compound 172, (S)-2-(3-(3-(fluoro(4-methyl-4H-1,2,4-triazol-3-yl)methyl)oxetan-3-yl)phenyl)-6-((3-hydroxy-3-propylazetidin-1-yl)methyl)-4-(trifluoromethyl)isoindolin-1-one] came in with an IC50 on Cbl-b of 180 nM. Moreover, at c-Cbl, the IC50 was 520 nM and the “(fold-selectivity)” value is reported as 2.9x.

With `Cn1cnnc1[C@H](F)C1(c2cccc(N3Cc4c(cc(CN5CC(O)(C6CC6)C5)cc4C(F)(F)F)C3=O)c2)COC1` [Compound 173, (R)-6-((3-cyclopropyl-3-hydroxyazetidin-1-yl)methyl)-2-(3-(3-(fluoro(4-methyl-4H-1,2,4-triazol-3-yl)methyl)oxetan-3-yl)phenyl)-4-(trifluoromethyl)isoindolin-1-one], the IC50 was 63 nM against Cbl-b and 83 nM against c-Cbl. Also, at c-Cbl, the “(fold-selectivity)” value amounted to 1.3x.

Take `Cn1cnnc1[C@@H](F)C1(c2cccc(N3Cc4c(cc(CN5CC(O)(C6CC6)C5)cc4C(F)(F)F)C3=O)c2)COC1` [Compound 174, (S)-6-((3-cyclopropyl-3-hydroxyazetidin-1-yl)methyl)-2-(3-(3-(fluoro(4-methyl-4H-1,2,4-triazol-3-yl)methyl)oxetan-3-yl)phenyl)-4-(trifluoromethyl)isoindolin-1-one]: the half-maximal inhibitory concentration (IC50) against Cbl-b is 190 nM. Further, at c-Cbl, 440 nM corresponded to half-maximal inhibition (IC50) and the “(fold-selectivity)” value came out at 2.3x.

For `Cn1cnnc1[C@H](F)C1(c2cccc(N3Cc4c(cc(CN5CCC56COC6)cc4C(F)(F)F)C3=O)c2)COC1` [Compound 175, (R)-6-(6-oxa-1-azaspiro[3.3]heptan-1-ylmethyl)-2-(3-(3-(fluoro(4-methyl-4H-1,2,4-triazol-3-yl)methyl)oxetan-3-yl)phenyl)-4-(trifluoromethyl)isoindolin-1-one], the IC50 at Cbl-b was determined as 150 nM. Besides, at c-Cbl, half-maximal inhibition (IC50) required 350 nM and the “(fold-selectivity)” value is listed as 2.5x.

As to `Cn1cnnc1[C@@H](F)C1(c2cccc(N3Cc4c(cc(CN5CCC56COC6)cc4C(F)(F)F)C3=O)c2)COC1` [Compound 176, (S)-6-(6-oxa-1-azaspiro[3.3]heptan-1-ylmethyl)-2-(3-(3-(fluoro(4-methyl-4H-1,2,4-triazol-3-yl)methyl)oxetan-3-yl)phenyl)-4-(trifluoromethyl)isoindolin-1-one], the results for the IC50 at Cbl-b and at c-Cbl were 350 nM and 1300 nM, respectively. For the same compound, the “(fold-selectivity)” value on c-Cbl is 3.5x.

Compound `Cn1cnnc1[C@H](F)C1(c2cccc(N3Cc4c(cc(CN5CC(CCO)C5)cc4C(F)(F)F)C3=O)c2)COC1` [Compound 177, (R)-2-(3-(3-(fluoro(4-methyl-4H-1,2,4-triazol-3-yl)methyl)oxetan-3-yl)phenyl)-6-((3-(2-hydroxyethyl)azetidin-1-yl)methyl)-4-(trifluoromethyl)isoindolin-1-one] showed an IC50 against Cbl-b of 41 nM. Besides, at c-Cbl, the IC50 was 91 nM and the “(fold-selectivity)” value amounted to 2.2x.

Turning to `Cn1cnnc1[C@@H](F)C1(c2cccc(N3Cc4c(cc(CN5CC(CCO)C5)cc4C(F)(F)F)C3=O)c2)COC1` [Compound 178, (S)-2-(3-(3-(fluoro(4-methyl-4H-1,2,4-triazol-3-yl)methyl)oxetan-3-yl)phenyl)-6-((3-(2-hydroxyethyl)azetidin-1-yl)methyl)-4-(trifluoromethyl)isoindolin-1-one], on Cbl-b, the concentration for half-maximal inhibition (IC50) was 170 nM. Also, on c-Cbl, the IC50 was found to be 350 nM and the “(fold-selectivity)” value was determined as 2.0x.

With `COC1(C)CN(Cc2cc3c(c(C(F)(F)F)c2)CN(c2cccc(C4([C@@H](F)c5nncn5C)COC4)c2)C3=O)C1` [Compound 179, (R)-2-(3-(3-(fluoro(4-methyl-4H-1,2,4-triazol-3-yl)methyl)oxetan-3-yl)phenyl)-6-((3-methoxy-3-methylazetidin-1-yl)methyl)-4-(trifluoromethyl)isoindolin-1-one], half-maximal inhibition against Cbl-b (IC50) was put at 54 nM. For the same compound, on c-Cbl, half-maximal inhibition (IC50) was put at 110 nM and the “(fold-selectivity)” value is given as 2.1x.

On to `COC1(C)CN(Cc2cc3c(c(C(F)(F)F)c2)CN(c2cccc(C4([C@H](F)c5nncn5C)COC4)c2)C3=O)C1` [Compound 180, (S)-2-(3-(3-(fluoro(4-methyl-4H-1,2,4-triazol-3-yl)methyl)oxetan-3-yl)phenyl)-6-((3-methoxy-3-methylazetidin-1-yl)methyl)-4-(trifluoromethyl)isoindolin-1-one], for which the IC50 on Cbl-b was 220 nM; against c-Cbl, 430 nM. Further, the “(fold-selectivity)” value at c-Cbl is on record as 1.9x.

As for `Cn1cnnc1[C@H](F)C1(c2cccc(N3Cc4c(cc(CN5CC6(C5)CS(=O)(=O)C6)cc4C(F)(F)F)C3=O)c2)COC1` [Compound 181, (R)-6-((2,2-dioxido-2-thia-6-azaspiro[3.3]heptan-6-yl)methyl)-2-(3-(3-(fluoro(4-methyl-4H-1,2,4-triazol-3-yl)methyl)oxetan-3-yl)phenyl)-4-(trifluoromethyl)isoindolin-1-one], the IC50 on Cbl-b is 52 nM. Moreover, at c-Cbl, it took 110 nM to reach half-maximal inhibition (IC50) and the “(fold-selectivity)” value turned out to be 2.1x.

`Cn1cnnc1[C@@H](F)C1(c2cccc(N3Cc4c(cc(CN5CC6(C5)CS(=O)(=O)C6)cc4C(F)(F)F)C3=O)c2)COC1` [Compound 182, (S)-6-((2,2-dioxido-2-thia-6-azaspiro[3.3]heptan-6-yl)methyl)-2-(3-(3-(fluoro(4-methyl-4H-1,2,4-triazol-3-yl)methyl)oxetan-3-yl)phenyl)-4-(trifluoromethyl)isoindolin-1-one] returned an IC50 on Cbl-b of 170 nM. In addition, at c-Cbl, the IC50 is 430 nM and the “(fold-selectivity)” value is 2.6x.

On to `CC(C)C1(O)CN(Cc2cc3c(c(C(F)(F)F)c2)CN(c2cccc(C4([C@@H](F)c5nncn5C)COC4)c2)C3=O)C1` [Compound 183, (R)-2-(3-(3-(fluoro(4-methyl-4H-1,2,4-triazol-3-yl)methyl)oxetan-3-yl)phenyl)-6-((3-hydroxy-3-isopropylazetidin-1-yl)methyl)-4-(trifluoromethyl)isoindolin-1-one], for which the IC50 on Cbl-b was determined as 57 nM. Besides, on c-Cbl, the IC50 is 120 nM and the “(fold-selectivity)” value came to 2.2x.

Compound `CC(C)C1(O)CN(Cc2cc3c(c(C(F)(F)F)c2)CN(c2cccc(C4([C@H](F)c5nncn5C)COC4)c2)C3=O)C1` [Compound 184, (S)-2-(3-(3-(fluoro(4-methyl-4H-1,2,4-triazol-3-yl)methyl)oxetan-3-yl)phenyl)-6-((3-hydroxy-3-isopropylazetidin-1-yl)methyl)-4-(trifluoromethyl)isoindolin-1-one] came in with an IC50 against Cbl-b of 160 nM. Moreover, at c-Cbl, the IC50 was 370 nM and the “(fold-selectivity)” value stood at 2.3x.
